Experimental data: patent publication US6838414B2, “Substituted aryl sulphonyl(thio)ureas used as herbicides” (Bayer Aktiengesellschaft, priority 1996, dated 2005)

Tests used:
weeds [1] = assay: Pre-emergence test (overall statement); format: in vivo; details: application rates between 30 g and 125 g of a.i. per hectare
Method: (§1) To produce a suitable preparation of active compound, 1 part by weight of active compound is mixed with the stated amount of solvent, the stated amount of emulsifier is added and the concentrate is diluted with water to the desired concentration.
(§2) Seeds of the test plants are sown in normal soil. After about 24 hours, the soil is sprayed with the preparation of the active compound. Advantageously, the amount of water per unit area is kept constant. The active compound concentration in the preparation is not important, only the active compound application rate per unit area is critical.
(§3) After three weeks, the degree of damage to the plants is rated in % damage in comparison with the development of the untreated control.
(§4) The figures denote: • 0%=no effect (like untreated control) • 100%=total destruction

Alopecurus [2] = assay: Pre-emergence test/greenhouse; format: in vivo; details: after three weeks
Method: as §1, §2, §3, §4

Stellaria = assay: Pre-emergence test/greenhouse; format: in vivo; details: after three weeks
Method: as §1, §2, §3, §4

Sorghum = assay: Pre-emergence test/greenhouse; format: in vivo; details: after three weeks
Method: as §1, §2, §3, §4

Lolium = assay: Pre-emergence test/greenhouse; format: in vivo; details: after three weeks
Method: as §1, §2, §3, §4

Chenopodium = assay: Pre-emergence test/greenhouse; format: in vivo; details: after three weeks
Method: as §1, §2, §3, §4

Amaranthus = assay: Pre-emergence test/greenhouse; format: in vivo; details: after three weeks
Method: as §1, §2, §3, §4

Abutilon = assay: Post-emergence test/greenhouse; format: in vivo; details: rated after three weeks vs untreated control
Method: as §1
(§5) Test plants which have a height of 5-15 cm are sprayed with the preparation of the active compound in such a way as to apply the particular amounts of active compound desired per unit area. The concentration of the spray liquor is chosen so that the amounts of active compound desired in each case are applied in 1000 l of water/ha.
as §3, §4

Alopecurus [3] = assay: Post-emergence test/greenhouse; format: in vivo; details: rated after three weeks vs untreated control
Method: as §1, §5, §3, §4

Matricaria = assay: Post-emergence test/greenhouse; format: in vivo; details: rated after three weeks vs untreated control
Method: as §1, §5, §3, §4

Echinochloa = assay: Post-emergence test/greenhouse; format: in vivo; details: rated after three weeks vs untreated control
Method: as §1, §5, §3, §4

weeds [4] = assay: Post-emergence test/greenhouse; format: in vivo
Method: as §1, §5, §3, §4

[5] = application rate 30 g of ai./ha
[6] = application rate 60 g of ai./ha

| SMILES | melting point [°C] | activity against weeds (weeds [1]) | Alopecurus, % damage (Alopecurus [2]; 60 g of ai./ha) [%] | Steltaria, % damage (Stellaria; 60 g of ai./ha) [%] | Sorghum, % damage (Sorghum; 60 g of ai./ha) [%] | Lolium, % damage (Lolium; 60 g of ai./ha) [%] | Chenopodium, % damage (Chenopodium; 60 g of ai./ha) [%] | Amaranthus, % damage (Amaranthus; 60 g of ai./ha) [%] | activity against weeds (weeds [4]) | degree of damage to the plants, Abutilon (Abutilon; [6]) [%] | degree of damage to the plants, Alopecurus (Alopecurus [3]; [6]) [%] | degree of damage to the plants, Matricaria (Matricaria; [6]) [%] | degree of damage to the plants, Echinochloa (Echinochloa; [6]) [%] | also measured |
| --- | --- | --- | --- | --- | --- | --- | --- | --- | --- | --- | --- | --- | --- | --- |
| COc1cccc(C(F)(F)F)c1S(=O)(=O)NC(=O)Nc1nc(C)cc(C)n1 [Example 1, N-(4,6-dimethyl-pyrimidin-2-yl)-N′-(2-methoxy-6-trifluoromethyl-phenylsulphonyl)-urea] | 190 | very strong activity against weeds | 100 | 100 | 100 | 100 | 100 | 100 |  |  |  |  |  |  |
| COc1nc(NC(=O)NS(=O)(=O)c2c(C)cccc2OC)nc(OC)n1 [Example 2, N-(4,6-dimethoxy-1,3,5-triazin-2-yl)-N′-(2-methoxy-6-methyl-phenylsulphonyl)-urea] | 163 | very strong activity against weeds |  |  |  |  |  |  | very strong activity against weeds |  |  |  |  | degree of damage to the plants, Abutilon (Abutilon; [5]): 95%; degree of damage to the plants, Alopecurus (Alopecurus [3]; [5]): 90%; degree of damage to the plants, Matricaria (Matricaria; [5]): 100%; degree of damage to the plants, Echinochloa (Echinochloa; [5]): 90%; Alopecurus, % damage (Alopecurus [2]; 30 g of ai./ha): 100%; Steltaria, % damage (Stellaria; 30 g of ai./ha): 100%; Sorghum, % damage (Sorghum; 30 g of ai./ha): 100%; Lolium, % damage (Lolium; 30 g of ai./ha): 100%; Chenopodium, % damage (Chenopodium; 30 g of ai./ha): 100%; Amaranthus, % damage (Amaranthus; 30 g of ai./ha): 100% |
| CCOc1cccc(C)c1S(=O)(=O)NC(=O)Nc1nc(OC)cc(OC)n1 [Example 3, N-(4,6-dimethoxy-pyrimidin-2-yl)-N′-(2-ethoxy-6-methyl-phenylsulphonyl)-urea] | 184 | very strong activity against weeds | 95 | 95 | 80 | 60 | 95 | 80 | very strong activity against weeds | 100 | 90 | 95 | 80 |  |
| COc1nc(C)nc(NC(=O)NS(=O)(=O)c2c(C)cccc2OC(F)F)n1 [Example 66] |  | very strong activity against weeds | 95 | 95 | 95 | 95 | 95 | 95 | very strong activity against weeds | 100 | 80 | 100 | 80 |  |
